# Laboratory results published in patent publication US20110201629A1, “CYCLOHEXYL AMIDE DERIVATIVES AS CRF RECEPTOR ANTAGONISTS” (priority 2010, published 2011).
# Where a name gives a salt, the structure may show the parent alone.
# Biological target: T1, CRF-2 (UniProt Q13324)
# T1 sequence (Q13324 1-411): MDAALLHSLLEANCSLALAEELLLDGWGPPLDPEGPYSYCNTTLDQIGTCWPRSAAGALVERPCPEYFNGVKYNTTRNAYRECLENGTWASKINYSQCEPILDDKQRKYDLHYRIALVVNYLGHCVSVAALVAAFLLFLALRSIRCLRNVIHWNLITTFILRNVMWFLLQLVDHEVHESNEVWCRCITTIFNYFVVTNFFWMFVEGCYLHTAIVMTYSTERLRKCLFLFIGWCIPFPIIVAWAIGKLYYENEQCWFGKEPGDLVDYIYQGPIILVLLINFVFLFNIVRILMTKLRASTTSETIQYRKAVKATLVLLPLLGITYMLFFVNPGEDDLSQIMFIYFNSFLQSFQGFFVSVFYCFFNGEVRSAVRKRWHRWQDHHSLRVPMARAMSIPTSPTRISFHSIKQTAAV
# Assay: CRF-2 receptor antagonism, HTRF cAMP assay in CHO cells
# Format: cell-based, human
# Details: Biological data Table 2; inhibition of CRF induced cAMP response in CHO cells, EC50 concentration of CRF
# Description: (§1) The CRF-1 and CRF-2 receptor antagonistic activity of the agents of the invention has been determined in vitro in the following assay:
# (§2) Chinese hamster ovary (CHO) cells expressing either the human or rat recombinant CRF-1 or human CRF-2α (Chen et al, Proc Natl Acad Sci USA 90, 8967-8971, 1993; Liaw et al, Endocrinology 137, 72-77, 1996) are propagated in Dulbecco's modified Eagle medium supplemented with 10% foetal calf serum, non-essential amino acids, 100 U/ml penicillin, 100 mg/l streptomycin and 1 g/l geneticin. CHO cells expressing the rat CRF-2β receptor (Wu et al, Endocrinology 148, 1675-1687, 2007) are propagated in HAM's-F12 Glutamax supplemented with 10% foetal calf serum, 100 IU/ml penicillin, 100 mg/l streptomycin, 600 μg/ml hygromycin, 10 μg/ml blasticidin and induced with 1 μg/ml of tetracyclin for 24 hours prior to experimentation. For cyclic AMP determinations the Homogeneous Time-Resolved Fluoresce (HTRF) cAMP dynamic 2 kit (Cisbio International, France) was used as per manufacturers' instructions. CHO cells, previously cryopreserved at 3×10^6 viable cells per ml of cell recovery media (Cat no. 12648-010, Invitrogen), were thawed, centrifuged for 7 mins at 1200 rpm and resuspended in serum free media to give a concentration of 0.5×10^6 cells per/ml. Compounds of the invention, prepared in DMSO, and subsequently diluted 50 fold in assay buffer (1× Hanks balanced salt solution, 0.2% (w/v) bovine serum albumin, 1.7 mM isobutylmethylxanthine and 10 mM Hepes, pH7.4) were then added onto the 384 well low volume black assay plate (Corning Inc, US, Cat. 3676). 2000 cells/well were then added to the assay plate further diluting the compound 2 fold and then the plate was incubated for 15 mins at room temperature. Following incubation, buffer containing a 5 times final concentration of agonist, typically r/h CRF is added to the plate and incubated for 30 min at room temperature. Finally, d2 dye labeled cAMP and cryptate labeled anti-cAMP antibody, both made in lysis buffer, are added to the plate followed by a settling period of 1 hour at room temperature. During the settling period cAMP produced by the cells competes with the d2 labelled cAMP for the anti-cAMP cryptate. The plate is read on the Pherastar (BMG, Germany). Increasing levels of endogenous cAMP produced by cells can be followed by a decrease of FRET fluorescent signal and vice versa. Values represented by a change in arbitrary fluorescence units are converted into cAMP concentrations by use of a standard curve, the reagents for which are supplied with the kit. Antagonist dose response curves (1 nM-31.6 μM) are constructed and tested in the presence of an EC50 concentration of CRF relevant to the receptor (hCRF-1=3 nM, hCRF-2α=2 nM, rCRF-1=1 nM and rCRF-2β=0.1 nM). IC50 values of antagonists are calculated by fitting the percent inhibition of CRF induced cAMP response by increasing concentrations of the antagonists. The fit is performed using the nonlinear logistic function of the Activitybase software package v 5.4.5.27 (IDBS, UK).
row,IC50 [nM],Compound
1,876,"Cc1ncc(Cl)cc1C(=O)N[C@H]1CC[C@H](CN2C(=O)C(C)(F)c3ccc(Cl)cc32)CC1 (single isomer, unassigned) [Example 2.33, Trans-5-Chloro-N-[4-(-6-chloro-3-fluoro-3-methyl-2-oxo-2,3-dihydro-indol-1-ylmethyl)-cyclohexyl]-2-methyl-nicotinamide]"

# Biological target: T2, CRF-1 (UniProt P34998)
# T2 sequence (P34998 1-415): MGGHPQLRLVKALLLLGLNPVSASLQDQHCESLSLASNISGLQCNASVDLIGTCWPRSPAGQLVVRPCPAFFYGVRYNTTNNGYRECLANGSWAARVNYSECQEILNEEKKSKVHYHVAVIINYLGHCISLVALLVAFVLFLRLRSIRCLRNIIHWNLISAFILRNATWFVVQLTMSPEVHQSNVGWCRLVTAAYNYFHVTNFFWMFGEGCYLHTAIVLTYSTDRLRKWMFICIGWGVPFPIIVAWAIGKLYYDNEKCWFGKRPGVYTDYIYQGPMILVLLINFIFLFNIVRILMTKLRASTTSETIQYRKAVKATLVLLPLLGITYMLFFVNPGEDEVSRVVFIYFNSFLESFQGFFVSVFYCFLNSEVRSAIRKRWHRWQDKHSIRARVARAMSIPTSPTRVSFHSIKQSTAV
# Assay: CRF-1 receptor antagonism, HTRF cAMP assay in CHO cells
# Format: cell-based, human
# Details: Biological data Table 1; inhibition of CRF induced cAMP response in CHO cells, EC50 concentration of CRF
# Description: as §1, §2
row,IC50 [nM],Compound
1,65,"O=C(N[C@H]1CC[C@H](CN2C(=O)Cc3ccc(Cl)cc32)CC1)c1cc(C(F)(F)F)ccc1Cl [Example 1.1, Trans-2-Chloro-N-[4-(6-chloro-2-oxo-2,3-dihydro-indol-1-ylmethyl)-cyclohexyl]-5-trifluoromethyl-benzamide]"
2,149,"O=C(N[C@H]1CC[C@H](CN2C(=O)C(F)(F)c3ccc(Cl)cc32)CC1)c1cc(C(F)(F)F)ccc1Cl [Example 2.1, Trans-2-chloro-N-[4-(6-chloro-3,3-difluoro-2-oxo-2,3-dihydro-indol-1-ylmethyl)-cyclohexyl]-5-trifluoromethyl-benzamide]"
3,242,"Cc1ncc(Cl)cc1C(=O)N[C@H]1CC[C@H](CN2C(=O)C(C)(C)c3cccnc32)CC1 [Example 2.3, Trans-5-chloro-N-[4-(3,3-dimethyl-2-oxo-2,3-dihydro-pyrrolo[2,3-b]pyridin-1-ylmethyl)-cyclohexyl]-2-methyl-nicotinamide]"
4,900,"O=C(N[C@H]1CC[C@H](CN2C(=O)Cc3cccnc32)CC1)c1cc(C(F)(F)F)ccc1Cl [Example 2.4, Trans-2-chloro-N-[4-(2-oxo-2,3-dihydro-pyrrolo[2,3-b]pyridin-1-ylmethyl)-cyclohexyl]-5-trifluoromethyl-benzamide]"
5,9,"O=C(N[C@H]1CC[C@H](CN2C(=O)C3(CC3)c3cc(F)ccc32)CC1)c1cc(C(F)(F)F)ccc1Cl [Example 2.5, Trans-2-chloro-N-{-4-((5′-fluoro-2′-oxospiro[cyclopropane-1,3′-indoline]-1′-yl)methyl)cyclohexyl}-5-(trifluoromethyl)benzamide]"
6,166,"COc1ccc2c(c1)C(C)(C)C(=O)N2C[C@H]1CC[C@H](NC(=O)c2cc(C(F)(F)F)ccc2Cl)CC1 [Example 2.7, Trans-2-Chloro-N-[4-(5-methoxy-3,3-dimethyl-2-oxo-2,3-dihydro-indol-1-ylmethyl)-cyclohexyl]-5-trifluoromethyl-benzamide]"
7,347,"COc1cc2c(cn1)C(C)(C)C(=O)N2C[C@H]1CC[C@H](NC(=O)c2cc(C(F)(F)F)ccc2Cl)CC1 [Example 2.8, Trans-2-Chloro-N-[4-(6-methoxy-3,3-dimethyl-2-oxo-2,3-dihydro-pyrrolo[3,2-c]pyridin-1-ylmethyl)-cyclohexyl]-5-trifluoromethyl-benzamide]"
8,16,"C[C@]1(F)C(=O)N(C[C@H]2CC[C@H](NC(=O)c3cc(C(F)(F)F)ccc3Cl)CC2)c2ccccc21 [Example 2.9, Trans-2-Chloro-N-[4-((R)-3-fluoro-3-methyl-2-oxo-2,3-dihydro-indol-1-ylmethyl)-cyclohexyl]-5-trifluoromethyl-benzamide]"
9,201,"C[C@@]1(F)C(=O)N(C[C@H]2CC[C@H](NC(=O)c3cc(C(F)(F)F)ccc3Cl)CC2)c2ccccc21 [Example 2.10, Trans-2-Chloro-N-[4-((S)-3-fluoro-3-methyl-2-oxo-2,3-dihydro-indol-1-ylmethyl)-cyclohexyl]-5-trifluoromethyl-benzamide]"
10,275,"CCn1c(=O)n(C[C@H]2CC[C@H](NC(=O)c3cc(Cl)cnc3C)CC2)c2ccncc21 [Example 2.42, Trans-5-Chloro-N-[4-(3-ethyl-2-oxo-2,3-dihydro-imidazo[4,5-c]pyridin-1-ylmethyl)-cyclohexyl]-2-methyl-nicotinamide]"
11,416,"Cc1ncc(Cl)cc1C(=O)N[C@H]1CC[C@H](Cn2c(=O)n(C)c3nccc(C)c32)CC1 [Example 2.43, Trans-5-Chloro-N-[4-(3,7-dimethyl-2-oxo-2,3-dihydro-imidazo[4,5-b]pyridin-1-ylmethyl)-cyclohexyl]-2-methyl-nicotinamide]"
12,612,"Cc1ncc(C(F)(F)F)cc1C(=O)N[C@H]1CC[C@H](CN2C(=O)C(C)(C)c3ccccc32)CC1 [Example 2.52, Trans-N-[4-(3,3-Dimethyl-2-oxo-2,3-dihydro-indol-1-ylmethyl)-cyclohexyl]-2-methyl-5-trifluoromethyl-nicotinamide]"
13,205,"O=C(N[C@H]1CC[C@H](CN2C(=O)Cc3cc(Cl)ccc32)CC1)c1cc(C(F)(F)F)ccc1Cl [Example 3.1, Trans-2-Chloro-N-[4-(5-chloro-2-oxo-2,3-dihydro-indol-1-ylmethyl)-cyclohexyl]-5-trifluoromethyl-benzamide]"
14,28,"CC1(C)C(=O)N(C[C@H]2CC[C@H](NC(=O)c3cc(C(F)(F)F)ccc3Cl)CC2)c2ccc(F)cc21 [Example 3.3, Trans-2-Chloro-N-[4-(5-fluoro-3,3-dimethyl-2-oxo-2,3-dihydro-indol-1-ylmethyl)-cyclohexyl]-5-trifluoromethyl-benzamide]"
15,145,"Cn1c(=O)n(C[C@H]2CC[C@H](NC(=O)c3cc(C(F)(F)F)ccc3Cl)CC2)c2ncccc21 [Example 3.6, Trans-2-Chloro-N-[4-(1-methyl-2-oxo-1,2-dihydro-imidazo[4,5-b]pyridin-3-ylmethyl)-cyclohexyl]-5-trifluoromethyl-benzamide]"
16,91,"O=C(N[C@H]1CC[C@H](Cn2c(=O)[nH]c3ccccc32)CC1)c1cc(C(F)(F)F)ccc1Cl [Example 3.7, Trans-2-Chloro-N-[4-(2-oxo-2,3-dihydro-bcnzoimidazol-1-ylmethyl)-cyclohexyl]-5-trifluoromethyl-benzamide]"
17,37,"Cn1c(=O)n(C[C@H]2CC[C@H](NC(=O)c3cc(C(F)(F)F)ccc3Cl)CC2)c2ccccc21 [Example 3.8, Trans-2-Chloro-N-[4-(3-methyl-2-oxo-2,3-dihydro-benzoimidazol-1-ylmethyl)-cyclohexyl]-5-trifluoromethyl-benzamide]"
18,118,"Cn1c(=O)n(C[C@H]2CC[C@H](NC(=O)c3cc(Cl)ccc3Cl)CC2)c2ccccc21 [Example 4.2, Trans-2,5-Dichloro-N-[4-(3-methyl-2-oxo-2,3-dihydro-benzoimidazol-1-ylmethyl)-cyclohexyl]-benzamide trifluoroacetate]"
19,126,"CC1(C)C(=O)N(C[C@H]2CC[C@H](NC(=O)c3cc(Cl)ccc3Cl)CC2)c2ccccc21 [Example 5.2, Trans-2,5-Dichloro-N-[4-(3,3-dimethyl-2-oxo-2,3-dihydro-indol-1-ylmethyl)-cyclohexyl]-benzamide]"

# Same assay, conditions: Biological data Table 2; inhibition of CRF induced cAMP response in CHO cells, EC50 concentration of CRF
row,IC50 [nM],Compound
1,44,"Cc1ncc(Cl)cc1C(=O)N[C@H]1CC[C@H](CN2C(=O)C(C)(F)c3ccc(Cl)cc32)CC1 (single isomer, unassigned) [Example 2.33, Trans-5-Chloro-N-[4-(-6-chloro-3-fluoro-3-methyl-2-oxo-2,3-dihydro-indol-1-ylmethyl)-cyclohexyl]-2-methyl-nicotinamide]"
